No end group written: not given here.
Assays:
[1] = system: Miltenberger Antibody Positive Panel; experiment: Reactivity of modified RBCs against the Miltenberger Antibody Positive Panel; assay type: cell-based, human; parameters: key to score vs panel 15 TAP2 / score vs panel 4 T7202 / score vs panel 8 T5896 / score vs panel 2 T217 / score vs panel 3 T165 / score vs panel 14 TAP1 / score vs panel 10 Mia / score vs panel 11 Mur / score vs panel 12 Gam / score vs panel 6 T6025 / score vs panel 7 T8445 / score vs panel 9 MIII / score vs panel 13 BoxH / reactivity with Panel Serum #7 (T8445) / agglutination score, Panel Serum #7 (T8445): 0 or ‘−’ no agglutination; 0 or ‘−’ no agglutination; 1+ or 3=very weak agglutination; 1+ or 3=very weak agglutination; 2+ or 5=weak agglutination; 2+ or 5=weak agglutination; 3+ or 8=moderate strong agglutination; 3+ or 8=moderate strong agglutination; 4+ or 10/12=strong agglutination; 4+ or 10/12=strong agglutination; 4+ or 10/12=strong agglutination; conditions: for agglutination score, Panel Serum #7 (T8445): cells modified at 50 μg/ml, 2 hour 37° C., BioVue AHG cards; for reactivity with Panel Serum #7 (T8445): construct 50 μg/ml (2 hours, 37° C.)
Method: Red blood cells are modified by mixing 1 part by volume of washed packed red blood cells with 1 part by volume of peptide-lipid construct dispersed at a concentration of 10 to 1000 pg/ml in cell media (Celpresol™).
The suspensions are either: • 1. incubated for 2 hours at 37° C. before being washed and suspended in a cell medium for serological analysis at a concentration of 0.8 to 3% (Method 1); or • 2. incubated for 3 to 4 hours at room temperature (circa 25° C.) followed by 18 hours at 4° C. before being washed and suspended in a cell medium for serological analysis at a concentration of 0.8 to 3% (Method 2).
Serological reactions are graded or scored by either of two established systems (0 or ‘−’ no agglutination, 1+ or 3=very weak agglutination, 2+ or 5=weak agglutination, 3+ or 8=moderate strong agglutination, 4+ or 10/12=strong agglutination)
Serological platforms used are Tube (addition of reagents and reactants into plastic or glass serology tubes and after appropriate incubations, washing and centrifugation observing reactions macroscopically by eye and a 10× magnification eyepiece and scoring) and BioVue™ (addition of reactants into cassettes containing beads (including some reactants) and after appropriate incubations and centrifugation observing the reaction patterns trapped within the Gel matrix). BioVue is the serological column agglutination platform of Ortho-Clinical Diagnostics. Diamed is the serological column agglutination platform of Diamed AG.

antibody negative serums = experiment: False positive reactions of modified RBCs with antibody negative serums/plasma; assay type: cell-based, human; parameters: key to Reaction score BioVue AHG, PAC samples 1-46, 49, 50, 52, 53 / Reaction score BioVue AHG, PAC sample 47 / Reaction score BioVue AHG, PAC sample 48 / Reaction score BioVue AHG, PAC sample 51 / agglutination score, T series serum 2 / agglutination score, T series serum 42 / agglutination score, T series serum 63 / agglutination score, T series serum 62 / agglutination score, T series serum 7 / agglutination score, T series serum 20 / agglutination score, T series serum 48 / agglutination score, T series serum 22 / agglutination score, T series serum 39 / agglutination score, T series serum 23 / agglutination score, T series serum 30 / agglutination score, T series serum 4 / agglutination score, T series serum 31 / agglutination score, T series serum 44 / agglutination score, T series serum 61 / agglutination score, T series serum 18 / agglutination score, T series serum 21 / agglutination score, T series serum 28 / agglutination score, T series serum 55 / agglutination score, false positive serum T18 / agglutination score, false positive serum T21 / agglutination score, false positive serum T28 / agglutination score, false positive serum T55 / agglutination score, false positive serum T78 / agglutination score, false positive serum T92: 0 or ‘−’ no agglutination; 0 or ‘−’ no agglutination; 1+ or 3=very weak agglutination; 1+ or 3=very weak agglutination; 2+ or 5=weak agglutination; 2+ or 5=weak agglutination; 3+ or 8=moderate strong agglutination; 3+ or 8=moderate strong agglutination; 4+ or 10/12=strong agglutination; 4+ or 10/12=strong agglutination; 4+ or 10/12=strong agglutination; conditions: larger series = 102; cells modified at 50 μg/ml, 2 hour 37° C.; BioVue AHG cards

Substance	score vs panel 2 T217 ([1]; Table 9, construct 50 μg/ml)	score vs panel 3 T165 ([1]; Table 9, construct 50 μg/ml)	score vs panel 4 T7202 ([1]; Table 9, construct 50 μg/ml)	score vs panel 6 T6025 ([1]; Table 9, construct 50 μg/ml)	score vs panel 7 T8445 ([1]; Table 9, construct 50 μg/ml)	score vs panel 8 T5896 ([1]; Table 9, construct 50 μg/ml)	score vs panel 9 MIII ([1]; Table 9, construct 50 μg/ml)	score vs panel 10 Mia ([1]; Table 9, construct 50 μg/ml)	score vs panel 11 Mur ([1]; Table 9, construct 50 μg/ml)	score vs panel 2 T217 ([1]; Table 9, construct 100 μg/ml)	score vs panel 3 T165 ([1]; Table 9, construct 100 μg/ml)	score vs panel 4 T7202 ([1]; Table 9, construct 100 μg/ml)	score vs panel 6 T6025 ([1]; Table 9, construct 100 μg/ml)	score vs panel 7 T8445 ([1]; Table 9, construct 100 μg/ml)	score vs panel 8 T5896 ([1]; Table 9, construct 100 μg/ml)	score vs panel 9 MIII ([1]; Table 9, construct 100 μg/ml)	score vs panel 10 Mia ([1]; Table 9, construct 100 μg/ml)	score vs panel 11 Mur ([1]; Table 9, construct 100 μg/ml)	score vs panel 12 Gam ([1]; Table 9, construct 100 μg/ml)	agglutination score, Panel Serum #7 (T8445) [1]	further results
M14: DOPE peptide-lipid construct: Mur peptide DTYPAHTANEVSE, leader c, spacer CMG(2) (DTYPAHTANEVSEC; also: DOPE peptide-lipid construct via leader Cys, spacer CMG(2))	0	10	3	5	8	0	0	0	0	3	10	5	10	5	0	0	0	0			score vs panel 2 T217 ([1]; Table 9, construct 10 μg/ml): 0; score vs panel 3 T165 ([1]; Table 9, construct 10 μg/ml): 10; score vs panel 4 T7202 ([1]; Table 9, construct 10 μg/ml): 0; score vs panel 6 T6025 ([1]; Table 9, construct 10 μg/ml): 8; score vs panel 7 T8445 ([1]; Table 9, construct 10 μg/ml): 5; score vs panel 8 T5896 ([1]; Table 9, construct 10 μg/ml): 0; score vs panel 9 MIII ([1]; Table 9, construct 10 μg/ml): 0; score vs panel 10 Mia ([1]; Table 9, construct 10 μg/ml): 0; score vs panel 11 Mur ([1]; Table 9, construct 10 μg/ml): 0; score vs panel 13 BoxH ([1]; Table 9, construct 10 μg/ml): 0; score vs panel 13 BoxH ([1]; Table 9, construct 100 μg/ml): 0
M16: DOPE peptide-lipid construct: Mur peptide TYPAHTANEV, leader c, spacer PEG (TYPAHTANEVC; also: DOPE peptide-lipid construct via leader Cys, spacer PEG)										0	10	5	5	12	0	0	0	0	0		score vs panel 13 BoxH ([1]; Table 9, construct 100 μg/ml): 0
M18: DOPE peptide-lipid construct: Mur peptide PAHTANEV, leader c, spacer CMG(2) (PAHTANEVC; also: DOPE peptide-lipid construct via leader Cys, spacer CMG(2))										0	10	0	10	8	0	0	0	0	0		
M19: DOPE peptide-lipid construct: Mur peptide PAHTANEV, leader c, spacer CMG(2) (PAHTANEVC; also: DOPE peptide-lipid construct via leader Cys, spacer CMG(2))										0	10	0	8	10	3	0	0	0	0	8	reactivity with Panel Serum #7 (T8445) [1]: 8; agglutination score, false positive serum T55 (antibody negative serums): 12
M21: DOPE peptide-lipid construct: MUTK peptide SQTNDKHKRD, leader c, spacer CMG(2) (SQTNDKHKRDC; also: DOPE peptide-lipid construct via leader Cys, spacer CMG(2))																					score vs panel 2 T217 ([1]; Table 8, construct 200 μg/ml): 0; score vs panel 3 T165 ([1]; Table 8, construct 200 μg/ml): 8; score vs panel 4 T7202 ([1]; Table 8, construct 200 μg/ml): 0; score vs panel 6 T6025 ([1]; Table 8, construct 200 μg/ml): 8; score vs panel 7 T8445 ([1]; Table 8, construct 200 μg/ml): 0; score vs panel 8 T5896 ([1]; Table 8, construct 200 μg/ml): 0; score vs panel 9 MIII ([1]; Table 8, construct 200 μg/ml): 0; score vs panel 10 Mia ([1]; Table 8, construct 200 μg/ml): 0; score vs panel 11 Mur ([1]; Table 8, construct 200 μg/ml): 0; score vs panel 12 Gam ([1]; Table 8, construct 200 μg/ml): 3; score vs panel 15 TAP2 ([1]; Table 8, construct 200 μg/ml): 5
M25: DOPE peptide-lipid construct: Mur peptide Tyr Pro Ala His Thr Ala Asn Gln, leader c, spacer CMG(2)	0	3	0	0	3	0	0	0	0											3	score vs panel 12 Gam ([1]; Table 9, construct 50 μg/ml): 0; score vs panel 15 TAP2 ([1]; Table 9, construct 50 μg/ml): 8; reactivity with Panel Serum #7 (T8445) [1]: 3; agglutination score, false positive serum T78 (antibody negative serums): 5
M26: DOPE peptide-lipid construct: Mur peptide YPAHTANEV, leader c, spacer CMG(2) (YPAHTANEVC; also: DOPE peptide-lipid construct via leader Cys, spacer CMG(2))	0	10	0	8	8	0	0	0	0											10	score vs panel 12 Gam ([1]; Table 9, construct 50 μg/ml): 0; score vs panel 15 TAP2 ([1]; Table 9, construct 50 μg/ml): 3; reactivity with Panel Serum #7 (T8445) [1]: 10; agglutination score, false positive serum T18 (antibody negative serums): 5; agglutination score, false positive serum T21 (antibody negative serums): 10; agglutination score, false positive serum T28 (antibody negative serums): 12; agglutination score, false positive serum T55 (antibody negative serums): 10; agglutination score, false positive serum T78 (antibody negative serums): 10; agglutination score, false positive serum T92 (antibody negative serums): 12
M27: DOPE peptide-lipid construct: Mur peptide TYPAHTAN, leader c, spacer CMG(2) (TYPAHTANC; also: DOPE peptide-lipid construct via leader Cys, spacer CMG(2))	0		10		0	0															score vs panel 15 TAP2 ([1]; Table 9, construct 50 μg/ml): 0
